Data from BindingDB's records for doi:10.1111/cbdd.12529 (Birla Institute of Technology, 2015).

How the values were obtained:
DNA gyrase subunit B [1] = target: T1, DNA gyrase subunit B (Staphylococcus aureus, UniProt P0A0K8); experiment: GyraseB Assay; details: pH 7.5
Experimental: Initially, equimolar quantities of about 0.5µM each of E. coli gyraseA and S. aureus gyraseB were incubated for a period of 45 min with salmon sperm DNA (Sigma) in 50mM Tris (pH 7.5), 75mM ammonium acetate buffer for the reconstitution of the hybrid topoisomerases at 4 OC. Later the assay was performed in a 96-well microtiter plate as mentioned earlier (7). […] The reaction was allowed to proceed for 60 min and was quenched by addition of 20uL of malachite green reagent (POMG-25H, Bioassay systems, USA) subsequently absorbance was read at 650nm after 20 mi

DNA gyrase subunit B [2] = target: T1, DNA gyrase subunit B; experiment: Supercoiling Assay; details: pH 7.6; 25 °C
Experimental: Supercoiling assay was performed using the commercially available kit (DNA gyrase supercoiling assay kit: SAS4001) from Inspiralis Pvt.limited, Norwich, UK. The assay was performed in 1.5 mL eppendorf tubes at room temperature. […] KOH (pH 7.6), 10 mM magnesium acetate, 10 mM DTT, 2 mM ATP, 500 mM potassium glutamate, 0.05 mg/mL albumin (BSA). While the standard compound novobiocin was the positive control, 4% DMSO was considered as negative control. Subsequently, each reaction was stopped by the addition of 30 µL of Stop dye [40% sucrose, 100 mM Tris-HCl (pH 7.5), 1 mM EDTA and 0.5 mg/mL bromophenol blue] (8), briefly centrifuged for 45 sec and was run in 1% agarose gel in 1X TAE buffer (40mM Tris acetate, 2mM EDTA).

T1 sequence (P0A0K8 whole entry): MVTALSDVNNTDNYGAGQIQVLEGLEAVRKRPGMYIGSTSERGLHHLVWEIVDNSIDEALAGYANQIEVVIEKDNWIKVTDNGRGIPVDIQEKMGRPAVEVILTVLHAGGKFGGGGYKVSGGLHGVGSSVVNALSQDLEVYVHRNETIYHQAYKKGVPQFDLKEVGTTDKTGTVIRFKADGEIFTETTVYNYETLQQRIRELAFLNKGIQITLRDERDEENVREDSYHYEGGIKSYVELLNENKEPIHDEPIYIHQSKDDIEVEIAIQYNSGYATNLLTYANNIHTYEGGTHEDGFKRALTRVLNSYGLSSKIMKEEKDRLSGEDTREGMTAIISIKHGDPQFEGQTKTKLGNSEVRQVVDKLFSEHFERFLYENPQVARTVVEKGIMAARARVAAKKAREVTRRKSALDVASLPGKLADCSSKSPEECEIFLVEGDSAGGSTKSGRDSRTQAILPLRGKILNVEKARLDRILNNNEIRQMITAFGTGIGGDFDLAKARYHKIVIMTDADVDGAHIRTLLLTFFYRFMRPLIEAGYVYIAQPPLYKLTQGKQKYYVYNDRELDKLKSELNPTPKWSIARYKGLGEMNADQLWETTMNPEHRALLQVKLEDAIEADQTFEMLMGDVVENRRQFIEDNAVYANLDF

O=C(O)CCC(=O)Nc1ccc(NC(=O)c2cccs2)cc1 [4-oxo-4-((4-(thiophene-2-carboxamido)phenyl)amino)butanoate (16)]
IC50 (DNA gyrase subunit B [1]): 22 µM
IC50 (DNA gyrase subunit B [2]): 12.5 µM

Cc1ccc(C(=O)Nc2ccc(NC(=O)CCC(=O)NN)cc2)s1 [N-(4-(4-Hydrazinyl-4-oxobutanamido)phenyl)-5-methylthiophene-2-carboxamide (25)]
IC50 (DNA gyrase subunit B [1]): 9.71 µM
IC50 (DNA gyrase subunit B [2]): 6.12 µM

NNC(=O)CCC(=O)Nc1ccc(NC(=O)c2ccco2)cc1 [N-(4-(4-Hydrazinyl-4-oxobutanamido)phenyl)furan-2-carboxamide (21)]
IC50 (DNA gyrase subunit B [1]): 39.4 µM
IC50 (DNA gyrase subunit B [2]): 23.9 µM

Cc1ccc(C(=O)Nc2ccc(NC(=O)CCC(=O)O)cc2)o1 [4-(4-(5-methylfuran-2-carboxamido)phenylamino)-4-oxobutanoate (14)]
IC50 (DNA gyrase subunit B [1]): 10.3 µM
IC50 (DNA gyrase subunit B [2]): 6.12 µM

O=C(O)CCC(=O)Nc1ccc(NC(=O)C2CCCO2)cc1 (stereo not drawn) [4-oxo-4-(4-(tetrahydrofuran-2-carboxamido)phenylamino)butanoate (20)]
IC50 (DNA gyrase subunit B [1]): 11.7 µM
IC50 (DNA gyrase subunit B [2]): 6.12 µM

NNC(=O)CCC(=O)Nc1ccc(NC(=O)c2ccc([N+](=O)[O-])s2)cc1 [N-(4-(4-Hydrazinyl-4-oxobutanamido)phenyl)-5-nitrothiophene-2-carboxamide (26)]
IC50 (DNA gyrase subunit B [1]): 26.4 µM
IC50 (DNA gyrase subunit B [2]): 19.3 µM

NNC(=O)CCC(=O)Nc1ccc(NC(=O)c2cccs2)cc1 [N-(4-(4-Hydrazinyl-4-oxobutanamido)phenyl)thiophene-2-carboxamide (24)]
IC50 (DNA gyrase subunit B [1]): 32.6 µM
IC50 (DNA gyrase subunit B [2]): 28.1 µM

O=C(O)CCC(=O)Nc1ccc(NC(=O)c2ccco2)cc1 [4-((4-(furan-2-carboxamido)phenyl)amino)-4-oxobutanoic acid (5)]
IC50 (DNA gyrase subunit B [2]): 3.12 µM

NNC(=O)CCC(=O)Nc1ccc(NC(=O)c2ccc[nH]2)cc1 [N-(4-(4-Hydrazinyl-4-oxobutanamido)phenyl)-1H-pyrrole-2-carboxamide (27)]
IC50 (DNA gyrase subunit B [1]): 54.9 µM
IC50 (DNA gyrase subunit B [2]): 43.1 µM

NNC(=O)CCC(=O)Nc1ccc(NC(=O)C2CCCO2)cc1 (stereo not drawn) [N-(4-(4-Hydrazinyl-4-oxobutanamido)phenyl)tetrahydrofuran-2-carboxamide (28)]
IC50 (DNA gyrase subunit B [1]): 41.2 µM
IC50 (DNA gyrase subunit B [2]): 23.1 µM

Cc1ccc(C(=O)Nc2ccc(NC(=O)CCC(=O)O)cc2)s1 [4-(4-(5-methylthiophene-2-carboxamido)phenylamino)-4-oxobutanoate (17)]
IC50 (DNA gyrase subunit B [1]): 24.7 µM
IC50 (DNA gyrase subunit B [2]): 12.5 µM

O=C(O)CCC(=O)Nc1ccc(NC(=O)c2ccc([N+](=O)[O-])s2)cc1 [4-(4-(5-nitrothiophene-2-carboxamido)phenylamino)-4-oxobutanoate (18)]
IC50 (DNA gyrase subunit B [1]): 29.5 µM
IC50 (DNA gyrase subunit B [2]): 26.8 µM

O=C(O)CCC(=O)Nc1ccc(NC(=O)c2ccc([N+](=O)[O-])s2)cc1 [4-((4-(5-nitrothiophene-2-carboxamido)phenyl)amino)-4-oxobutanoic acid (10)]
IC50 (DNA gyrase subunit B [1]): 12.5 µM
IC50 (DNA gyrase subunit B [2]): 6.12 µM

O=C(O)CCC(=O)Nc1ccc(NC(=O)c2ccc([N+](=O)[O-])o2)cc1 [4-(4-(5-nitrofuran-2-carboxamido)phenylamino)-4-oxobutanoate (15)]
IC50 (DNA gyrase subunit B [1]): 28.9 µM
IC50 (DNA gyrase subunit B [2]): 25.8 µM

Cc1ccc(C(=O)Nc2ccc(NC(=O)CCC(=O)NN)cc2)o1 [N-(4-(4-Hydrazinyl-4-oxobutanamido)phenyl)-5-methylfuran-2-carboxamide (22)]
IC50 (DNA gyrase subunit B [1]): 5.35 µM
IC50 (DNA gyrase subunit B [2]): 2.79 µM

NNC(=O)CCC(=O)Nc1ccc(NC(=O)c2ccc([N+](=O)[O-])o2)cc1 [N-(4-(4-Hydrazinyl-4-oxobutanamido)phenyl)-5-nitrofuran-2-carboxamide (23)]
IC50 (DNA gyrase subunit B [1]): 35.5 µM
IC50 (DNA gyrase subunit B [2]): 25.1 µM

O=C(O)CCC(=O)Nc1ccc(NC(=O)c2ccc[nH]2)cc1 [4-(4-(1H-pyrrole-2-carboxamido)phenylamino)-4-oxobutanoate (19)]
IC50 (DNA gyrase subunit B [1]): 42.4 µM
IC50 (DNA gyrase subunit B [2]): 13.7 µM
